Experimental data: patent publication US20240181000A1, “LGG-DERIVED PEPTIDES AND METHODS OF USE THEREOF” (Ohio State Innovation Foundation, priority 2021, published 2024)
Where two headings read alike, the source gives them in different places. Marks after values point to notes of the source that are not given here. No end group written: not given here.

Experiments:
[1] = test system: Salmonella enterica subsp. enterica serovar Typhimurium LT2 (ST); experiment: Anti-Salmonella growth inhibition and MIC; type: cell-based; details: No treatment
Experimental: Primary screening for anti-Salmonella activity of peptides: The inhibitory effect of the peptides was accessed as described previously. ST was grown overnight and adjusted to 5×10^5 CFU/mL; 100 microliters of this measured concentration was placed into the wells of a 96 well plate. Peptides 1-6 were added to the well at 12 mM concentration and plate was incubated in a TECAN Sunrise™ absorbance microplate reader at 37° C. with kinetic absorbance measurements taken every 30 minutes for 12 h. The growth inhibitory activity was calculated with the formula (OD600 DMSO treated well-OD600 peptide treated well)/OD600 DMSO treated well×100%. DMSO treated, Salmonella challenged wells and sterile media with no Salmonella challenge were used as controls. This experiment was done twice to ensure the accuracy and reproducibility of the results.
MIC was determined by selecting peptide concentration at which there is no increased growth (no increase in OD), given indication of no ST growth. An independent repeat experiment was conducted.
Heat and protease tolerance of peptides: P1, P2, and P4 were heated for 6 minutes at 86° C. or treated with protease proteinase K, 200 μg/mL at 50° C. for 30 minutes. After which, the treated and/or heated peptides at their respective MICs were evaluated in the inhibition assay with Salmonella. The protocol from above was repeated in the Tecan with the same controls. […]

cecal microbiota = experiment: Cecal microbiome analysis (peptides, ST infected); type: in vivo, chickens; details: for Relative Abundance (%) Acinetobacter / Relative Abundance (%) Blautia / Relative Abundance (%) Caproiciproducens / Relative Abundance (%) Enterobacteriaceae (unidentified) / Relative Abundance (%) Epulopiscium / Relative Abundance (%) Lachnospiraceae (unidentified) / Relative Abundance (%) Lachnospiraceae NK4A136 group / Relative Abundance (%) Lactobacillus / Relative Abundance (%) Sellimonas / Relative Abundance (%) [Clostridium] innocuum group / Relative Abundance (%) [Eubacterium] coprostanoligenes group / Relative abundance (%) Anaerotruncus / Relative abundance (%) Clostridium sensu stricto 1 / Relative abundance (%) Enterococcus / Relative abundance (%) Erysipelatoclostridium / Relative abundance (%) Escherichia-Shigella / Relative abundance (%) Flavonifractor / Relative abundance (%) Lachnospiraceae (uncultured) / Relative abundance (%) Oscillibacter / Relative abundance (%) Pediococcus / Relative abundance (%) Ruminiclostridium 5 / Relative abundance (%) Ruminiclostridium 9 / Relative abundance (%) Ruminococcus torques group: genus
Experimental: Cecal microbiome analysis: To evaluate the role P1, P2, and P4 (50 mg/kg) treatment on the cecal microbiome of chickens, 16S rRNA based metagenomic study was conducted as previously described. DNA was extracted from approximately 0.2 g of cecal content using PureLink™ Microbiome DNA Purification Kit (Thermofisher Scientific). After which, RNA was removed with the treatment of RNase A (2 μL of 100 mg/mL solution per sample: Qiagen). NanoDrop 2000c Spectrophotometer (ThermoFisher Scientific) was used to check the quality and measure the quantity of the DNA. The extracted DNA was used in 16S rRNA V4-V5 sequencing done at MCIC (mcic.osu.edu/genomics/illumina-sequencing). Amplicon libraries were prepared using IFU KAPA HiFi HotStart ReadyMixPCR Kit (Roche). PCR products were cleaned using Agencourt AMPure XP beads (BECKMAN COULTER Life Sciences). Nextera XT DNA Library Preparation Kit (Illumina) was used to generate Illumina library and sequencing done with Illumina MiSeq platform generating paired end 300-bp reads. QIIME 2 (Quantitative Insights Into Microbial Ecology) bioinformatics platform (qiime2.org/) was used to conduct metagenomic analysis. Quality control of the raw reads was performed using FastQC 0.11.8 (Babraham Bioinformatics). Trimmomatic-0.33 was used to trim the adaptor and other Illumina-specific sequences (www.usadellab.org/cms/?page=trimmomatic). After which trimmed sequences (fastq.gz) were then imported into QIIME 2 as a manifest file format (PairedEndManifestPhred33V2). DADA2 was then used for the feature table construction and additional filtering of sequences. Taxonomic analysis was performed using Naive Bayes classifiers trained on the Silva 132 99% OTUs (silva-132-99-nb-classifier.qza) database. Phylogenetic diversity was analyzed using align-to-tree-mafft-fasttree pipeline. Additionally, Shannon's diversity index (alpha diversity) and Bray-Curtis distance (beta diversity) were analyzed using core-metrics-phylogenetic pipeline (docs.qiime2.org/2019.7/tutorials/moving-pictures/). Alpha and beta diversity statistical significance were analyzed using Kruskal-Wallis and PERMANOVA tests (P<0.05), respectively. The statistical difference (P<0.05) in the taxonomic composition between the groups was determined using Mann Whitney Test.

APEC [2] = experiment: Alanine scanning SAR, anti-APEC activity; type: cell-based, E. coli
Source text: Structure-activity relationship (SAR) study: To identify the crucial amino acid residues required for the peptide activity, alanine scanning libraries of peptides (P1, P2, and P3) (www.genscript.com/alanine_scanning.html) were synthesized (Table 22) and tested for anti-APEC activity as described above. The anti-APEC activity of peptide analogues (SEQ ID NO: 67-84) was then compared with the original peptide and the relative importance (% growth inhibition by peptide analogue/% growth inhibition by original peptide×100%) of each AA residue of the peptide was determined.

APEC [3] = type: in vivo, chickens
Source text: FIGS. 57A-57D show the APEC load of chickens (at 7 dpi [days post infection]) treated with either peptides P-1 or P-2.

APEC [4] = test system: APEC
Experimental: FIGS. 58A-58B show the APEC load after treatment 8 days dpi with LGG and 50 mg/mL of peptides in drinking water.

S. typhimurium = experiment: P1 and P2 in drinking water, S. typhimurium infected chickens; type: in vivo; details: 100 mg/L in drinking water, 7 dpi
Experimental: Both the P1 and P2 at 200 mg/L and 100 mg/L concentrations reduced S. typhimurium colonization by 0.78 (p<0.05) and 0.69 (p<0.05) log CFU/gm, respectively.

| Substance | MIC against ST [1] [mM] | Relative Abundance (%) Acinetobacter (cecal microbiota) [%] | Relative Abundance (%) Blautia (cecal microbiota) [%] | Relative Abundance (%) Caproiciproducens (cecal microbiota) [%] | Relative Abundance (%) Enterobacteriaceae (unidentified) (cecal microbiota) [%] | Relative Abundance (%) Epulopiscium (cecal microbiota) [%] | Relative Abundance (%) Lachnospiraceae (unidentified) (cecal microbiota) [%] | Relative Abundance (%) Lachnospiraceae NK4A136 group (cecal microbiota) [%] | Relative Abundance (%) Lactobacillus (cecal microbiota) [%] | Relative Abundance (%) Sellimonas (cecal microbiota) [%] | Relative Abundance (%) [Clostridium] innocuum group (cecal microbiota) [%] | Relative Abundance (%) [Eubacterium] coprostanoligenes group (cecal microbiota) [%] | Relative abundance (%) Anaerotruncus (cecal microbiota) [%] | Relative abundance (%) Clostridium sensu stricto 1 (cecal microbiota) [%] | Relative abundance (%) Enterococcus (cecal microbiota) [%] | Relative abundance (%) Erysipelatoclostridium (cecal microbiota) [%] | Relative abundance (%) Escherichia-Shigella (cecal microbiota) | Relative abundance (%) Flavonifractor (cecal microbiota) [%] | Relative abundance (%) Lachnospiraceae (uncultured) (cecal microbiota) | Relative abundance (%) Oscillibacter (cecal microbiota) [%] | also measured |
| --- | --- | --- | --- | --- | --- | --- | --- | --- | --- | --- | --- | --- | --- | --- | --- | --- | --- | --- | --- | --- | --- |
| MLNERVK [Peptide P4, MLNERVK] | 18 | 0.00 | 1.60 | 0.00 | 4.54 | 0.00 | 44.19 | 0.53 | 7.01 | 0.57 | 0.00 | 0.00 | 0.48 | 0.00 | 0.00 | 3.51 | 3.16† % | 1.20 | *11.71% | 1.35 | Relative abundance of Lachnospiraceae (cecal microbiota; family, negative control 53%): 78%; Relative abundance (%) Pediococcus (cecal microbiota): 0.75%; Relative abundance (%) Ruminiclostridium 5 (cecal microbiota): 0.00%; Relative abundance (%) Ruminiclostridium 9 (cecal microbiota): 0.13† %; Relative abundance (%) Ruminococcus torques group (cecal microbiota): 19.27% |
| PDENK [Peptide P2, PDENK] | 15 | 0.00 | 0.00 | 0.63 | 6.22 | 0.17 | 37.10 | 0.00 | 5.57 | 1.76 | 0.00 | 0.00 | 0.00 | 0.00 | 0.00 | 5.56 | 13.25% | 2.33 | 4.21% | 0.00 | Relative importance of D and E in P2 (APEC [2]): 97.1%; Relative importance of P, N and K in P2 (APEC [2]): < 40%; Reduction of APEC colonization in cecum (APEC [3]; 50 mg/L in drinking water, 7 dpi): 1.5 log CFU/gm; Bodyweight (APEC [3]; in vivo): no significant effect; Reduction of APEC colonization in ceca (APEC [4]; LGG and 50 mg/mL of peptides in drinking water, 8 days dpi): 1.02 Log CFU/gm; Bodyweight (APEC [4]; in vivo): no significant effect; Relative abundance (%) Pediococcus (cecal microbiota): 0.00%; Relative abundance (%) Ruminiclostridium 5 (cecal microbiota): 0.00%; Relative abundance (%) Ruminiclostridium 9 (cecal microbiota): 0.00† %; Relative abundance (%) Ruminococcus torques group (cecal microbiota): 23.19%; Reduction of S. typhimurium colonization in ceca (S. typhimurium): 0.69 log CFU/gm |
